# What was measured:
# JAK2 = biological target: T1, JAK2 (Homo sapiens, UniProt O60674); test: Assay for JAK2 Inhibition (phosphorylation of FAM-labeled substrate, Caliper LC-3000); type: biochemical; details: −log10(IC50), IC50 is the molar concentration at 50% inhibition; read-out: JAK2 pIC50 (converted)
# T1 construct: purchased Invitrogen
# Method: (§1) A compound's ability to inhibit JAK activity may be assessed using a variety of methods, including in vitro and in vivo assays. The following in vitro assays measure a test compound's ability to inhibit JAK2- and JAK3-mediated phosphorylation of FAM-labeled JAK-specific substrates.
# (§2) Purified JAK2 and JAK3 proteins were purchased from Invitrogen. JAK2 and JAK3 inhibition is determined using a black 384-well-plate format in buffer containing 50 mM HEPES, 10 mM NaCl, 10 mM MgCl2, 0.2 mM EDTA, 0.01% EDA (Brij® 35), 1 mM DTT, 0.1 mg/mL BSA at pH 7.3. Each test compound is prepared in DMSO using 2-fold serial dilutions for 11 data points and is added to the buffer so that each dilution contains 3% DMSO.
# (§3) To each well is added 2 μL of 3 μM 5FAM-KKKKEEIYFFFG-NH2 and 45 μM ATP (in buffer), 2 μL of diluted test compound (3% DMSO in medium), and 2 μL of 0.6 nM JAK2 in buffer. The reaction mixture is incubated at room temperature for 60 min and is quenched by adding 50 mM HEPeX, 30 mM EDTA, and 0.1% Tx-100 (pH 7.3). To quantify the fluorescent-labeled substrate and product following reaction, the test plate is loaded on a Caliper LC-3000, which measures percent of conversion by microfluidic-based separation.
# (§4) Corresponding IC50 values are calculated by non-linear curve fitting of the compound concentrations and percent of inhibition to the standard IC50 equation.
# JAK3 = biological target: T2, JAK3 (Homo sapiens, UniProt P52333); test: Assay for JAK3 Inhibition (phosphorylation of FAM-labeled substrate, Caliper LC-3000); type: biochemical; details: −log10(IC50), IC50 is the molar concentration at 50% inhibition; read-out: JAK3 pIC50 (converted)
# T2 construct: purchased Invitrogen
# T2 sequence (P52333 1-1124): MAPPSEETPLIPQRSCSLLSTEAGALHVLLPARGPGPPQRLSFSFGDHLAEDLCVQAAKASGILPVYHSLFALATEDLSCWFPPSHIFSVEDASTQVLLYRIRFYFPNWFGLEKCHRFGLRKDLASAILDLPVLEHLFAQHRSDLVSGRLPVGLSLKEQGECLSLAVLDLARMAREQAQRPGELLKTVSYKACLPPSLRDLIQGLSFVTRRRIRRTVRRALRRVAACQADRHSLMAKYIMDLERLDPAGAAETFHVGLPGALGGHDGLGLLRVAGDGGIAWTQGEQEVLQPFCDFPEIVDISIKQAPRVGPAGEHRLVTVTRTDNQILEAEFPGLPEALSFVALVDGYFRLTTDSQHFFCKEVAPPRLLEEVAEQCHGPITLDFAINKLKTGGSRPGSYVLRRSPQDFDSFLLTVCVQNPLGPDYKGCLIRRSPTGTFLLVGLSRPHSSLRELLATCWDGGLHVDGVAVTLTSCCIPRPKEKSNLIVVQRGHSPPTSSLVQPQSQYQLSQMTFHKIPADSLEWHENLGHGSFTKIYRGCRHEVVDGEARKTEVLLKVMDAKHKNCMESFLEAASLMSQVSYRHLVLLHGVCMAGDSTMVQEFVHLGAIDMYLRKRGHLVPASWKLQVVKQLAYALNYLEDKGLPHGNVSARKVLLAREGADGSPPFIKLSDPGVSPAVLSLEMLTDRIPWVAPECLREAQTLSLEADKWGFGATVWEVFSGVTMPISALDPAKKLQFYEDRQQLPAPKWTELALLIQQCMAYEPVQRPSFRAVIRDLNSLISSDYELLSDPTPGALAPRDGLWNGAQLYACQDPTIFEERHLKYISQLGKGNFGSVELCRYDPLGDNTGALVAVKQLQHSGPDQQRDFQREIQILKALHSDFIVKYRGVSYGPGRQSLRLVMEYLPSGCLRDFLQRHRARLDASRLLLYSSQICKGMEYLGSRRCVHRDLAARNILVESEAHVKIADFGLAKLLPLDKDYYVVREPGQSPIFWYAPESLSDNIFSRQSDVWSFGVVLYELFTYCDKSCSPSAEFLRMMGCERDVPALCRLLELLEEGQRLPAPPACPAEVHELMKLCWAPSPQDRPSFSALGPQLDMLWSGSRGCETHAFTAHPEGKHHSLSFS
# Method: as §1, §2
# as §3, with “15” for “45”, “1.2” for “0.6”, “JAK3” for “JAK2”, “HEPES,” for “HEPeX,”
# as §4
# T1 sequence (O60674 whole entry): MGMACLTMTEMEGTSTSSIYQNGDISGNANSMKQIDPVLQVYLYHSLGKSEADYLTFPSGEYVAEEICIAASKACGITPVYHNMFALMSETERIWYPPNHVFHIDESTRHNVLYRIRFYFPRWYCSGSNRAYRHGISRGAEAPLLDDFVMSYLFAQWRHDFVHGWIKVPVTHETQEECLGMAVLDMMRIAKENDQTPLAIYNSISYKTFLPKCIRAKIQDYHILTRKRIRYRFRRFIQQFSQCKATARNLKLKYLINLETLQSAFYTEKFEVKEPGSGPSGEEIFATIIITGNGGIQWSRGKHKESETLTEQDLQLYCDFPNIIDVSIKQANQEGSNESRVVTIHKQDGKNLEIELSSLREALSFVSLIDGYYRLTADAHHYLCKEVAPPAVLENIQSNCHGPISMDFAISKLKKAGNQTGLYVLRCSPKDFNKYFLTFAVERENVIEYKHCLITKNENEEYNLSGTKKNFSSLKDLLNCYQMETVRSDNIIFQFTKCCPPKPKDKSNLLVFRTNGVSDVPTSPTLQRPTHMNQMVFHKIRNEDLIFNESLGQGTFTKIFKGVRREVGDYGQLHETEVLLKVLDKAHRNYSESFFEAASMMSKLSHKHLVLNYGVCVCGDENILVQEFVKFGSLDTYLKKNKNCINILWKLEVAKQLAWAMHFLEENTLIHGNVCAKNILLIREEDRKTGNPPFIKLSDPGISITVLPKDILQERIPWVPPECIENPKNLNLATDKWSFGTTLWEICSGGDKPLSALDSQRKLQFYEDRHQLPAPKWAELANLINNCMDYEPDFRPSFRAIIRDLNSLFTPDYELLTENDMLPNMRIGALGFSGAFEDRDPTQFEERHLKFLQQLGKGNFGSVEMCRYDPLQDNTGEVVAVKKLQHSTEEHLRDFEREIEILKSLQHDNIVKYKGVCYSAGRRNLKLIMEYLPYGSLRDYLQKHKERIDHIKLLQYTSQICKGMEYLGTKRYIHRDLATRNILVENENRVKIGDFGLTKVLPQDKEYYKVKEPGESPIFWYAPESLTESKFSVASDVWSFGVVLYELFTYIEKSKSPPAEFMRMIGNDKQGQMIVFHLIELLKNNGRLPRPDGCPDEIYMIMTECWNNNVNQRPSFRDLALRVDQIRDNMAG
Compound,IC50 (JAK2),IC50 (JAK3)
"CC(C#N)NC(=O)[C@@H](C(C)C)N1Cc2c(F)cnc3[nH]cc(c23)C1=O (stereo partly drawn) [Example 75, (2R)—N-(1-cyanoethyl)-2-(6-fluoro-3-oxopyrrolo[4,3,2-de][2,6]naphthyridin-4(1H,3H,5H)-yl)-3-methylbutanamide]",794 nM,31.6 nM
"CC(C)(C)[C@H](C(=O)N1CC(C#N)C1)N1Cc2ccnc3[nH]cc(c23)C1=O [Example 82, (R)-1-(3,3-dimethyl-2-(3-oxopyrrolo[4,3,2-de][2,6]naphthyridin-4(1H,3H,5H)-yl)butanoyl)azetidine-3-carbonitrile]",39.8 nM,2 nM
"CC(C)[C@H](C(=O)Nc1cccc(C#N)c1)N1Cc2c(Cl)cnc3[nH]cc(c23)C1=O [Example 36, (R)-2-(6-chloro-3-oxopyrrolo[4,3,2-de][2,6]naphthyridin-4(1H,3H,5H)-yl)-N-(3-cyanophenyl)-3-methylbutanamide]",1000 nM,126 nM
"CC(C)[C@H](C(=O)N1CC(C#N)(CF)C1)N1Cc2ccnc3[nH]cc(c23)C1=O [Example 51, (R)-3-(fluoromethyl)-1-(3-methyl-2-(3-oxopyrrolo[4,3,2-de][2,6]naphthyridin-4(1H,3H,5H)-yl)butanoyl)azetidine-3-carbonitrile]",158 nM,5.01 nM
"CC(C)[C@H](C(=O)N1CCC[C@@H]1C#N)N1Cc2c(Cl)cnc3[nH]cc(c23)C1=O [Example 85, (R)-1-((R)-2-(6-chloro-3-oxopyrrolo[4,3,2-de][2,6]naphthyridin-4(1H,3H,5H)-yl)-3-methylbutanoyl)pyrrolidine-2-carbonitrile]",1580 nM,100 nM
"CC(C)(C)[C@H](C(=O)N1CC(C#N)C1)N1Cc2c(Cl)cnc3[nH]cc(c23)C1=O [Example 41, (R)-1-(2-(6-chloro-3-oxopyrrolo[4,3,2-de][2,6]naphthyridin-4(1H,3H,5H)-yl)-3,3-dimethylbutanoyl)azetidine-3-carbonitrile]",50.1 nM,3.98 nM
"Cc1cnc2[nH]cc3c2c1CN([C@@H](C(=O)N1CC(C#N)C1)C(C)(C)C)C3=O [Example 87, (R)-1-(3,3-dimethyl-2-(6-methyl-3-oxopyrrolo[4,3,2-de][2,6]naphthyridin-4(1H,3H,5H)-yl)butanoyl)azetidine-3-carbonitrile]",50.1 nM,3.16 nM
"N#CCC(=O)N1CCC(N2Cc3c[nH]c4nccc(c34)C2=O)CC1 [Example 3, 3-oxo-3-(4-(5-oxopyrrolo[4,3,2-de][2,6]naphthyridin-4(1H,3H,5H)-yl)piperidin-1-yl)propanenitrile]",794 nM,1580 nM
"O=C1c2ccnc3[nH]cc(c23)CN1CC1CCNC1 (centres unmarked) [Example 13, 4-(pyrrolidin-3-ylmethyl)-3,4-dihydropyrrolo[4,3,2-de][2,6]naphthyridine-5(1H)-one]",5010 nM,3160 nM
"CCC(=O)N1CCC(CC)(N2Cc3c[nH]c4nccc(c34)C2=O)CC1 [Example 16, 4-(4-ethyl-1-propionylpiperidin-4-yl)-3,4-dihydropyrrolo[4,3,2-de][2,6]naphthyridin-5(1H)-one]",10 nM,50.1 nM
"O=C(NC1CCCC1)[C@@H](CC(F)(F)F)N1Cc2ccnc3[nH]cc(c23)C1=O [Example 28, (R)—N-cyclopentyl-4,4,4-trifluoro-2-(3-oxopyrrolo[4,3,2-de][2,6]naphthyridin-4(1H,3H,5H)-yl)butanamide]",10000 nM,398 nM
"CC(C)[C@H](C(=O)NOCC1CC1)N1Cc2c(F)cnc3[nH]cc(c23)C1=O [Example 49, (R)—N-(cyclopropylmethoxy)-2-(6-fluoro-3-oxopyrrolo[4,3,2-de][2,6]naphthyridin-4(1H,3H,5H)-yl)-3-methylbutanamide]",2000 nM,100 nM
"CC(C)[C@H](C(=O)NC1CCC(F)(F)C1)N1Cc2c(F)cnc3[nH]cc(c23)C1=O (stereo partly drawn) [Example 50, (2R)—N-(3,3-difluorocyclopentyl)-2-(6-fluoro-3-oxopyrrolo[4,3,2-de][2,6]naphthyridin-4(1H,3H,5H)-yl)-3-methylbutanamide]",1580 nM,79.4 nM
"CCC1(N2Cc3c[nH]c4nccc(c34)C2=O)CCN(c2ccncn2)CC1 [Example 17, 4-(4-ethyl-1-(pyrimidin-4-yl)piperidin-4-yl)-3,4-dihydropyrrolo[4,3,2-de][2,6]naphthyridin-5(1H)-one]",5.01 nM,12.6 nM
"CC[C@H](C(=O)N1CCN(c2ccccn2)CC1)N1Cc2ccnc3[nH]cc(c23)C1=O [Example 64, (R)-4-(1-oxo-1-(4-(pyridin-2-yl)piperazin-1-yl)butan-2-yl)-4,5-dihydropyrrolo[4,3,2-de][2,6]naphthyridin-3(1 H)-one]",20000 nM,2510 nM

# Second part, the molecule after the results:
IC50 (JAK2),IC50 (JAK3),Compound
20000 nM,3980 nM,"CC[C@H](C(=O)NCC1CC1)N1Cc2ccnc3[nH]cc(c23)C1=O [Example 66, (R)—N-(cyclopropylmethyl)-2-(3-oxopyrrolo[4,3,2-de][2,6]naphthyridin-4(1H,3H,5H)-yl)butanamide]"
5010 nM,251 nM,"CC[C@H](C(=O)NCC(C)C)N1Cc2ccnc3[nH]cc(c23)C1=O [Example 67, (R)—N-isobutyl-2-(3-oxopyrrolo[4,3,2-de][2,6]naphthyridin-4(1H,3H,5H)-yl)butanamide]"
20000 nM,6310 nM,"CC[C@H](C(=O)N1CCCC(C)C1)N1Cc2ccnc3[nH]cc(c23)C1=O (stereo partly drawn) [Example 61, 4-((2R)-1-(3-methylpiperidin-1-yl)-1-oxobutan-2-yl)-4,5-dihydropyrrolo[4,3,2-de][2,6]naphthyridin-3(1 H)-one]"
12600 nM,1580 nM,"CC[C@H](C)[C@H](C(=O)NC1CCCC1)N1Cc2ccnc3[nH]cc(c23)C1=O [Example 24, (2R,3S)—N-cyclopentyl-3-methyl-2-(3-oxopyrrolo[4,3,2-de][2,6]naphthyridin-4(1H,3H,5H)-yl)pentanamide]"
1580 nM,79.4 nM,"CC(C)[C@H](C(=O)N1CCCC1)N1Cc2ccnc3[nH]cc(c23)C1=O [Example 20, (R)-4-(3-methyl-1-oxo-1-(pyrrolidin-1-yl)butan-2-yl)-4,5-dihydropyrrolo[4,3,2-de][2,6]naphthyridin-3(1H)-one]"
20000 nM,2510 nM,"CC[C@H](C(=O)N(C)CC(C)C)N1Cc2ccnc3[nH]cc(c23)C1=O [Example 68, (R)—N-isobutyl-N-methyl-2-(3-oxopyrrolo[4,3,2-de][2,6]naphthyridin-4(1H,3H,5H)-yl)butanamide]"
31600 nM,2000 nM,"CC[C@H](C(=O)N1CCOCC1)N1Cc2ccnc3[nH]cc(c23)C1=O [Example 54, (R)-4-(1-morpholino-1-oxobutan-2-yl)-4,5-dihydropyrrolo[4,3,2-de][2,6]naphthyridin-3(1 H)-one]"

# Reference: patent publication US8785429B2, “Dihydropyrrolonaphthyridinone compounds as inhibitors of JAK” (Takeda Pharmaceutical Company Limited, priority 2009, dated 2014)
